Legend:
[1] = system: Alopecurus myosuroides (ALOMY); assay: Example A pre-emergence herbicidal activity, glasshouse pot test; assay type: in vivo; settings: 480 h, rate 250 g/ha, evaluated 20 days after spraying, read-out: ALOMY pre-emergence activity (100=total damage to plant; 0=no damage to plant)
Protocol: (§1) Monocotyledonous and dicotyledonous test plants are sown in standard soil in pots. After cultivation for one day (pre-emergence) or after 10 days cultivation (post-emergence) under controlled conditions in a glasshouse, the plants are sprayed with an aqueous spray solution derived from the formulation of the technical active ingredient in 0.6 ml acetone and 45 ml formulation solution containing 10.6% Emulsogen EL (Registry number 61791-12-6), 42.2% N-methylpyrrolidone, 42.2% dipropylene glycol monomethyl ether (Registry number 34590-94-8) and 0.2% X-77 (Registry number 11097-66-8). The test plants are then grown in a greenhouse under optimum conditions until, 15 days later for post-emergence and 20 days for pre-emergence, the test is evaluated (100=total damage to plant; 0=no damage to plant). Test Plants: Alopecurus myosuroides (ALOMY), Avena fatua (AVEFA), Lolium perenne (LOLPE), Setaria faberi (SETFA), Digitaria sanguinalis (DIGSA), Echinochloa crus-galli (ECHCG) Pre-Emergence Activity

Avena fatua (AVEFA) [2] = assay: as above; assay type: in vivo; settings: 480 h, rate 250 g/ha, evaluated 20 days after spraying, read-out: AVEFA pre-emergence activity (100=total damage to plant; 0=no damage to plant)
Protocol: as §1

[3] = system: Digitaria sanguinalis (DIGSA); assay: as above; assay type: in vivo; settings: 480 h, rate 250 g/ha, evaluated 20 days after spraying, read-out: DIGSA pre-emergence activity (100=total damage to plant; 0=no damage to plant)
Protocol: as §1

[4] = system: Echinochloa crus-galli (ECHCG); assay: as above; assay type: in vivo; settings: 480 h, rate 250 g/ha, evaluated 20 days after spraying, read-out: ECHOG pre-emergence activity (100=total damage to plant; 0=no damage to plant)
Protocol: as §1

Lolium perenne (LOLPE) [5] = assay: as above; assay type: in vivo; settings: 480 h, rate 250 g/ha, evaluated 20 days after spraying, read-out: LOLPE pre-emergence activity (100=total damage to plant; 0=no damage to plant)
Protocol: as §1

Setaria faberi (SETFA) [6] = assay: as above; assay type: in vivo; settings: 480 h, rate 250 g/ha, evaluated 20 days after spraying, read-out: SETFA pre-emergence activity (100=total damage to plant; 0=no damage to plant)
Protocol: as §1

[7] = system: Alopecurus myosuroides (ALOMY); assay: Example A post-emergence herbicidal activity, glasshouse pot test; assay type: in vivo; settings: 360 h, rate 125 g/ha, evaluated 15 days after spraying, read-out: ALOMY post-emergence activity (100=total damage to plant; 0=no damage to plant)
Protocol: as §1, with “Post-Emergence” for “Pre-Emergence”

Avena fatua (AVEFA) [8] = assay: as above; assay type: in vivo; settings: 360 h, rate 125 g/ha, evaluated 15 days after spraying, read-out: AVEFA post-emergence activity (100=total damage to plant; 0=no damage to plant)
Protocol: as §1, with “Post-Emergence” for “Pre-Emergence”

[9] = system: Digitaria sanguinalis (DIGSA); assay: as above; assay type: in vivo; settings: 360 h, rate 125 g/ha, evaluated 15 days after spraying, read-out: DIGSA post-emergence activity (100=total damage to plant; 0=no damage to plant)
Protocol: as §1, with “Post-Emergence” for “Pre-Emergence”

[10] = system: Echinochloa crus-galli (ECHCG); assay: as above; assay type: in vivo; settings: 360 h, rate 125 g/ha, evaluated 15 days after spraying, read-out: ECHOG post-emergence activity (100=total damage to plant; 0=no damage to plant)
Protocol: as §1, with “Post-Emergence” for “Pre-Emergence”

Lolium perenne (LOLPE) [11] = assay: as above; assay type: in vivo; settings: 360 h, rate 125 g/ha, evaluated 15 days after spraying, read-out: LOLPE post-emergence activity (100=total damage to plant; 0=no damage to plant)
Protocol: as §1, with “Post-Emergence” for “Pre-Emergence”

Setaria faberi (SETFA) [12] = assay: as above; assay type: in vivo; settings: 360 h, rate 125 g/ha, evaluated 15 days after spraying, read-out: SETFA post-emergence activity (100=total damage to plant; 0=no damage to plant)
Protocol: as §1, with “Post-Emergence” for “Pre-Emergence”

[13] = system: Alopecurus myosuroides (ALOMY); assay: Example B pre-emergence herbicidal activity, glasshouse pot test; assay type: in vivo; settings: 312 h, first table (headed Post-Emergence, taken as pre-emergence), rate 1000 g/ha, evaluated after 13 days, read-out: ALOMY activity (100=total damage to plant; 0=no damage to plant)
Protocol: (§2) Seeds of a variety of test species are sown in standard soil in pots. After cultivation for one day (pre-emergence) or after 8 days cultivation (post-emergence) under controlled conditions in a glasshouse (at 24/16° C., day/night; 14 hours light; 65% humidity), the plants are sprayed with an aqueous spray solution derived from the formulation of the technical active ingredient in acetone/water (50:50) solution containing 0.5% Tween 20 (polyoxyethelyene sorbitan monolaurate, CAS RN 9005-64-5). The test plants are then grown in a glasshouse under controlled conditions in a glasshouse (at 24/16° C., day/night; 14 hours light; 65% humidity) and watered twice daily. After 13 days for pre and post-emergence, the test is evaluated (100=total damage to plant; 0=no damage to plant). Test Plants: Setaria faberi (SETFA), Alopecurus myosuroides (ALOMY), Echinochloa crus-galli (ECHCG), Avena fatua (AVEFA)

Avena fatua (AVEFA) [14] = assay: as above; assay type: in vivo; settings: 312 h, first table (headed Post-Emergence, taken as pre-emergence), rate 1000 g/ha, evaluated after 13 days, read-out: AVEFA activity (100=total damage to plant; 0=no damage to plant)
Protocol: as §2

[15] = system: Echinochloa crus-galli (ECHCG); assay: as above; assay type: in vivo; settings: 312 h, first table (headed Post-Emergence, taken as pre-emergence), rate 1000 g/ha, evaluated after 13 days, read-out: ECHCG activity (100=total damage to plant; 0=no damage to plant)
Protocol: as §2

Setaria faberi (SETFA) [16] = assay: as above; assay type: in vivo; settings: 312 h, first table (headed Post-Emergence, taken as pre-emergence), rate 1000 g/ha, evaluated after 13 days, read-out: SETFA activity (100=total damage to plant; 0=no damage to plant)
Protocol: as §2

[17] = system: Alopecurus myosuroides (ALOMY); assay: Example B post-emergence herbicidal activity, glasshouse pot test; assay type: in vivo; settings: 312 h, rate 1000 g/ha, evaluated after 13 days, read-out: ALOMY post-emergence activity (100=total damage to plant; 0=no damage to plant)
Protocol: as §2

Avena fatua (AVEFA) [18] = assay: as above; assay type: in vivo; settings: 312 h, rate 1000 g/ha, evaluated after 13 days, read-out: AVEFA post-emergence activity (100=total damage to plant; 0=no damage to plant)
Protocol: as §2

[19] = system: Echinochloa crus-galli (ECHCG); assay: as above; assay type: in vivo; settings: 312 h, rate 1000 g/ha, evaluated after 13 days, read-out: ECHCG post-emergence activity (100=total damage to plant; 0=no damage to plant)
Protocol: as §2

Setaria faberi (SETFA) [20] = assay: as above; assay type: in vivo; settings: 312 h, rate 1000 g/ha, evaluated after 13 days, read-out: SETFA post-emergence activity (100=total damage to plant; 0=no damage to plant)
Protocol: as §2

Structure (SMILES)	pest or weed control at 250 g/ha [1] [%]	pest or weed control at 250 g/ha (Avena fatua (AVEFA) [2]) [%]	pest or weed control at 250 g/ha [3] [%]	pest or weed control at 250 g/ha [4] [%]	pest or weed control at 250 g/ha (Lolium perenne (LOLPE) [5]) [%]	pest or weed control at 250 g/ha (Setaria faberi (SETFA) [6]) [%]	pest or weed control at 125 g/ha [7] [%]	pest or weed control at 125 g/ha (Avena fatua (AVEFA) [8]) [%]	pest or weed control at 125 g/ha [9] [%]	pest or weed control at 125 g/ha [10] [%]	pest or weed control at 125 g/ha (Lolium perenne (LOLPE) [11]) [%]	pest or weed control at 125 g/ha (Setaria faberi (SETFA) [12]) [%]	pest or weed control at 1000 g/ha [13] [%]	pest or weed control at 1000 g/ha (Avena fatua (AVEFA) [14]) [%]	pest or weed control at 1000 g/ha [15] [%]	pest or weed control at 1000 g/ha (Setaria faberi (SETFA) [16]) [%]	pest or weed control at 1000 g/ha [17] [%]	pest or weed control at 1000 g/ha (Avena fatua (AVEFA) [18]) [%]	pest or weed control at 1000 g/ha [19] [%]	pest or weed control at 1000 g/ha (Setaria faberi (SETFA) [20]) [%]	also measured
CCOC(=O)OC1=C(c2ccc(Cl)cc2Cl)C(=O)NC12CCN(OC)CC2 [Compound P16]	30	30	0	20	50	10	70	30	50	50	20	50	70	50	40	90	100	80	100	100	melting point: 187 to 189 °C
CCOC(=O)OC1=C(c2c(C)cc(C)cc2C)C(=O)NC12CCN(OC)CC2 [Compound P18]	60	70	20	30	70	20	70	60	80	80	70	60	100	90	100	100	100	90	100	100	
CCOC(=O)OC1=C(c2cc(-c3ccc(Cl)cc3)ccc2C)C(=O)NC12CCN(OC)CC2 [Compound P29]	20	50	20	60	10	0	90	90	100	100	80	90	70	90	100	100	100	100	100	100	melting point: 209 to 211 °C
C=CCOC(=O)OC1=C(c2c(C)cc(C)cc2C)C(=O)NC12CCN(OC)CC2 [Compound P43]	80	70	90	80	70	80	60	40	70	60	70	50	100	90	100	100	90	90	90	90	melting point: 174 to 176 °C
CON1CCC2(CC1)NC(=O)C(c1cc(-c3ccc(Cl)cc3)ccc1C)C2=O (stereo not drawn) [Compound T9]	0	60	0	10	30	0	90	80	100	100	50	90					80	90	100	100	

— US8722578B2, “Spiroheterocyclic pyrrolidinedione herbicidal compositions” (Syngenta Participations AG, priority 2008, dated 2014)
